Results on four compounds are retold here after patent US8952024B2, “Herbicidal pyrimidone derivatives” (E I du Pont de Nemours and Company, priority 2009, dated 2015).

Common to all, as to experiment: Test B pre-/postemergence plant response
Holding throughout (assay type): in vivo
Holding throughout (settings): Preemergence

In assay [1] the test system is galium (catchweed bedstraw, Galium aparine). In outline:
(§1)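 Visual ratings on a 0–100 scale (100 = complete control) were made versus untreated controls 13–15 days after treatment in a greenhouse. Compounds in surfactant-containing non-phytotoxic solvent were applied preemergence to seeds in loam–sand blend or postemergence to 1- to 4-leaf plants (2–18 cm).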

Assay [2] relates to nightshade (eastern black nightshade, Solanum ptycanthum). The method, boiled down:
as §1

The test system of assay [3] is sunflower (common oilseed sunflower, Helianthus annuus). In outline:
as §1

[4] abbreviates: 31 g ai/ha, scale 0 to 100 (0 no effect, 100 complete control).
Setting [5] is: 62 g ai/ha, scale 0 to 100 (0 no effect, 100 complete control).
Setting [6] is: 125 g ai/ha, scale 0 to 100, 0 no effect, 100 complete control.

In the case of `Cc1cc(C)cc(-n2c(-c3ccccc3)ncc(C(=O)C3=C(O)CCCC3=O)c2=O)c1` [Compound 33], the “Plant response rating, Galium” value in assay [1] (250 g ai/ha, 0 to 100 scale) is 90; in assay [1] (setting [4]), 0; in assay [1] (setting [5]), 10. Further, the “Galium plant response rating” value in assay [1] (125 g ai/ha, 0 to 100 scale) came out at 50. The “Plant response rating, Nightshade” value in assay [2] (250 g ai/ha, 0 to 100 scale) came to 100; in assay [2] (setting [4]), 80; in assay [2] (setting [5]), 100. Also, in assay [2] (125 g ai/ha, 0 to 100 scale), the “Nightshade plant response rating” value amounted to 100. Also, the “Plant response rating, Sunflower” value in assay [3] (250 g ai/ha, 0 to 100 scale) is 90; in assay [3] (setting [4]), 65; in assay [3] (setting [5]) it was 75. The “Sunflower plant response rating” value in assay [3] (125 g ai/ha, 0 to 100 scale) came out at 75.
Regarding `O=C1CCCC(O)=C1C(=O)c1cnc(-c2ccccc2)n(-c2ccccc2F)c1=O` [Compound 26], the “Plant response rating, Galium” value in assay [1] (250 g ai/ha, 0 to 100 scale) is on record as 98; in assay [1] (setting [4]) it was 0; in assay [1] (setting [5]) it was 50. The “Galium plant response rating” value in assay [1] (125 g ai/ha, 0 to 100 scale) came to 90. For the same compound, the “Plant response rating, Nightshade” value in assay [2] (250 g ai/ha, 0 to 100 scale) worked out at 100; in assay [2] (setting [4]) it was 85; in assay [2] (setting [5]), 100. Besides, the “Nightshade plant response rating” value in assay [2] (125 g ai/ha, 0 to 100 scale) is 100. The “Plant response rating, Sunflower” value turned out to be 95 in assay [3] (250 g ai/ha, 0 to 100 scale); 60 in assay [3] (setting [4]); 90 in assay [3] (setting [5]). Moreover, the “Sunflower plant response rating” value in assay [3] (125 g ai/ha, 0 to 100 scale) worked out at 90.
Regarding `CCCn1c(-c2cccs2)ncc(C(=O)C2=C(O)CCCC2=O)c1=O` [Compound 77], the “Plant response rating, Galium” value in assay [1] (setting [4]) turned out to be 0; in assay [1] (setting [5]), 20; in assay [1] (setting [6]) it was 85. In assay [1] (250 g ai/ha, 0 to 100 scale), the “Galium plant response rating” value was 90. Further, the “Plant response rating, Nightshade” value in assay [2] (setting [4]), in assay [2] (setting [5]) and in assay [2] (setting [6]) was 98 each time. Moreover, in assay [2] (250 g ai/ha, 0 to 100 scale), the “Nightshade plant response rating” value is 100. The “Plant response rating, Sunflower” value in assay [3] (setting [4]) came to 60; in assay [3] (setting [5]), 75; in assay [3] (setting [6]) it was 75. In addition, the “Sunflower plant response rating” value in assay [3] (250 g ai/ha, 0 to 100 scale) amounted to 85.
As to `CCCCc1ncc(C(=O)C2=C(O)CCCC2=O)c(=O)n1-c1ccccc1` [Compound 42], the “Plant response rating, Galium” value in assay [1] (250 g ai/ha, 0 to 100 scale) is recorded as 50; in assay [1] (setting [4]), 0; in assay [1] (setting [5]), 0. For the same compound, the “Galium plant response rating” value in assay [1] (125 g ai/ha, 0 to 100 scale) is on record as 10. The “Plant response rating, Nightshade” value came to 100 in assay [2] (250 g ai/ha, 0 to 100 scale); 100 in assay [2] (setting [4]); 100 in assay [2] (setting [5]). For the same compound, in assay [2] (125 g ai/ha, 0 to 100 scale), the “Nightshade plant response rating” value is 100. In addition, the “Plant response rating, Sunflower” value is 75 in assay [3] (250 g ai/ha, 0 to 100 scale) and 0 in assay [3] (setting [4]). The “Sunflower plant response rating” value in assay [3] (125 g ai/ha, 0 to 100 scale) was found to be 55.
